Measurements: patent US20210071180A1, “MICRORNA 584-5P COMPOSITIONS AND METHODS FOR TREATING CANCER” (BOARD OF REGENTS, THE UNIVERSY OF TEXAS SYSTEM, priority 2018, published 2021)

How the values were obtained:
Assay type in all cases: cell-based
MB cells = assay: Cell viability, proliferation, clonogenic and transwell migration assays
Method: Cell viability and proliferation assays. MB cells transfected with miR-584-5p mimic or target siRNAs were seeded in 96-well plates at a density of 5×10^3 for D556Med and DAOY or 10×10^3 for D425Med and D458Med per well for 72 hours. Cell viability was assessed using CellTiter-Glo (Promega) or alamarBlue (Thermofisher), and proliferation was assessed using CyQuant Direct Cell Proliferation Assay (Thermofisher).
Next, the in vitro results were validated by determining the function of miR-584-5p in MB and by using an in vivo tumor xenograft model to test the efficacy of miR-584-5p-VCR combination therapy. […] In FIG. 3A, cell proliferation was measured by CyQuant Cell Proliferation Assay. The p-values were determined using standard Student t-tests. […] In FIG. 3B, cell proliferation was measured using an IncuCyte phase-only processing module. […] The p-value was calculated using a standard Student t-test. […] The p-value was calculated using a standard Student t-test. […] In FIG. 4F, The p-value was calculated using a standard Student t-test. […] Cell proliferation was measured using an IncuCyte phase-only processing module. ****, p<0.0001. […]
To determine whether miR-584-5p imparts its tumor-suppressing and VCR-sensitizing effect by downregulating HDAC1/eIF4E3 levels in MB, the function of eIF4E3 and HDAC1 in MB was investigated. […] The p-values in FIGS. 6C and D were calculated using a standard Student t-test. […]

PGC-1α = assay: qRT-PCR of PGC-1α expression; conditions: miR-584-5p-treated MB cells
Excerpt: One such gene is peroxisome proliferator-activated receptor gamma coactivator 1-α, which codes for PGC-1α protein, which HDAC1 inhibits in brown adipocytes (Li, F. et al. J Biol Chem 291, 4523-4536, (2016)). The results disclosed herein reveal that PGC-1α expression is increased in miR-584-5p-treated MB cells (FIG. 10). […] The data in FIG. 10 represent Log 2 ratio tumor/cerebellum control. Data mined from GSE28245. ***, p<0.001; ** , p<0.01; * , p<0.05.
VCR disrupts the integrity of the mitotic spindle and destabilizes microtubules (George, P., Journey, L. J. & Goldstein, M. N. J Natl Cancer Inst 35, 355-375 (1965)). Therefore, it was tested whether miR-584-5p and its target genes might affect microtubule dynamics. First, expression of tubulins was deteremined because VCR resistance has been associated with altered expression of tubulin isotypes (Sirotnak, F. M., Danenberg, K. D., Chen, J., Fritz, F. & Danenberg, P. V. Biochem Biophys Res Commun 269, 21-24, (2000)). […] In FIG. 12A, the p-values were calculated using standard Student t-tests. Error bars represent mean±SEM. ****, p<0.0001. […] The p-values were calculated using standard Student t-tests. Error bars represent mean±SEM. […] In FIG. 11F, the p-values were calculated using standard Student t-tests. […] In FIG. 11H, The p-values were calculated using standard Student t-tests. […] Quantitative real-time PCR. […]

normal neural stem cell = assay: Normal neural stem cell growth

## miR-584-5p: microRNA mimic; nucleotide sequence UUAUGGUUUGCCUGGGACUGAG (SEQ ID NO: 1); purchased from Thermofisher (chemistry not given here)
MB cells; D556Med cells cotransfected with eIF4E3/HDAC1 expression vector and miR-584-5p mimic
  long-term viability and migration elicited by HDAC1/eIF4E3 overexpression: rescued the increased long-term viability and migration
MB cells; vs miR-NC
  short-term and long-term viability as well as migration of MB cells: reduced
PGC-1α
  PGC-1α expression: increased
Normal neural stem cell
  normal neural stem cell growth: without affecting normal neural stem cell growth
